Each structure is given as a SMILES string. “And” between values parts separate entries of the source, which are not always exact repeats. Identical values can stand only once. Records with an inconclusive call do not appear. Where a SMILES comes first, the peptide text is derived from it. Bridges are numbered along the chain shown (N, C = ends). Roman numbers before positions name the chains, in order. [ ]: non-standard residue; d: D form. The star is where a group is joined. Quinoxaline2carbonyl = O=C(c1cnc2ccccc2n1)*; NMeV = CN[CH](C(=O)O)C(C)C; NMeC = CN[CH](CS)C(=O)O

The test system of the test is BDF1 mice, colon carcinoma 38 sc, T/C %. Kind of test: NCI In Vivo Anticancer Drug Screen. Data for tumor model Colon Carcinoma 38 (subcutaneous) in B6D2F1 (BDF1) mice. Conditions: endpoint: median tumor weight (est.), higher = larger tumour. A digest of the protocol:
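T/C readout: treated group (T) measurement over vehicle control group (C) measurement. Endpoint is survival or tumor size in mice bearing a transplanted tumor.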

Where [1] appears, read: dose: 25.0 mg/kg/injection, schedule: Q07DX002 (ip), vehicle: saline.
Setting [2] is: dose: 50.0 mg/kg/injection, schedule: Q07DX002 (ip), vehicle: saline.
[3] abbreviates: dose: 100.0 mg/kg/injection, schedule: Q07DX002 (ip), vehicle: saline.
The mark [4] stands for this setting: dose: 200.0 mg/kg/injection, schedule: Q07DX002 (ip), vehicle: saline.
Setting [5] is: dose: 400.0 mg/kg/injection, schedule: Q07DX002 (ip), vehicle: saline.
Where [6] appears, read: dose: 50.0 mg/kg/injection, schedule: Q07DX002 (ip), vehicle: saline with Tween-80.
[7] abbreviates: dose: 100.0 mg/kg/injection, schedule: Q07DX002 (ip), vehicle: saline with Tween-80.
Setting [8] is: dose: 25.0 mg/kg/injection, schedule: Q07DX002 (ip), vehicle: saline with Tween-80.
Where [9] appears, read: dose: 6.25 mg/kg/injection, schedule: Q07DX002 (ip), vehicle: saline.
Where [10] appears, read: dose: 12.5 mg/kg/injection, schedule: Q07DX003 (ip), vehicle: Klucel (hydroxypropylcellulose) (HPC).
Where [11] appears, read: dose: 200.0 mg/kg/injection, schedule: Q07DX003 (ip), vehicle: Klucel (hydroxypropylcellulose) (HPC).
Where [12] appears, read: dose: 12.5 mg/kg/injection, schedule: Q07DX002 (ip), vehicle: saline.
[13] abbreviates: dose: 25.0 mg/kg/injection, schedule: Q07DX002 (ip), vehicle: suspension in saline.

Consider `NC(=O)NO`, for which the T/C under setting [1] was 99 % of control; the T/C under setting [2] was 69 % of control; the T/C under setting [3] was 99 % of control; the T/C (dose: 100.0 mg/kg/injection, schedule: Q07DX003 (ip), vehicle: saline) is 152 % of control; the T/C under setting [4] was 78 % of control; the T/C (dose: 200.0 mg/kg/injection, schedule: Q07DX003 (ip), vehicle: saline) is 43 % of control and 60 % of control. Further, the T/C by setting is: under setting [5], 88 % of control; (dose: 800.0 mg/kg/injection, schedule: Q07DX003 (ip), vehicle: saline) 39 % of control.
As for `BrC[P+](CBr)(CBr)CBr`, the T/C runs as follows: (dose: 3.12 mg/kg/injection, schedule: Q07DX002 (ip), vehicle: saline with Tween-80) 48 % of control; (dose: 6.25 mg/kg/injection, schedule: Q07DX002 (ip), vehicle: saline with Tween-80) 73 % of control; under setting [6], 82 % of control; under setting [7], 75 % of control and 77 % of control.
As to `CC(/C=C/c1ccccc1)=Nc1ccccc1`, the T/C was 40 % of control under setting [8]; 110 % of control under setting [6]; 92 % of control under setting [7]; 185 % of control (dose: 400.0 mg/kg/injection, schedule: Q07DX002 (ip), vehicle: saline with Tween-80).
Consider `C[CH2][Ge]1([CH2]C)[CH2]CC2(CCN(CCCN(C)C)C2)C[CH2]1`, for which the T/C is, setting by setting: under setting [9], 97 % of control; under setting [1], 105 % of control; under setting [2], 110 % of control.
As to `CNc1nc(NC)nc(NC)n1`, the T/C is 105 % of control under setting [10]; 111 % of control (dose: 50.0 mg/kg/injection, schedule: Q07DX003 (ip), vehicle: Klucel (hydroxypropylcellulose) (HPC)); 109 % of control (dose: 100.0 mg/kg/injection, schedule: Q07DX003 (ip), vehicle: Klucel (hydroxypropylcellulose) (HPC)); 86 % of control under setting [11].
Consider `O=NN(CCCl)C(=O)NC1CCC(=O)NC1=O` (stereo not drawn), for which the T/C runs as follows: (dose: 2.0 mg/kg/injection, schedule: Q07DX003 (ip), vehicle: saline with Tween-80) 82 % of control; (dose: 4.0 mg/kg/injection, schedule: Q07DX003 (ip), vehicle: saline with Tween-80) 93 % of control; (dose: 8.0 mg/kg/injection, schedule: Q07DX003 (ip), vehicle: saline with Tween-80) 76 % of control; (dose: 13.0 mg/kg/injection, schedule: Q07DX003 (ip), vehicle: saline with Tween-80) 57 % of control; (dose: 20.0 mg/kg/injection, schedule: Q07DX003 (ip), vehicle: saline with Tween-80) 12 % of control.
As for `Cc1ccc2c(ccc(CC(=S)[S-])[n+]2C)c1`, the T/C is 111 % of control and 93 % of control (dose: 100.0 mg/kg/injection, schedule: Q07DX002 (ip), vehicle: Klucel (hydroxypropylcellulose) (HPC)); 122 % of control (dose: 200.0 mg/kg/injection, schedule: Q07DX002 (ip), vehicle: Klucel (hydroxypropylcellulose) (HPC)).
With `COC(=O)CC(N)C(=O)O` (stereo not drawn), the T/C is 95 % of control under setting [1]; 70 % of control under setting [2]; 86 % of control under setting [3]; 61 % of control under setting [4]; 50 % of control under setting [5].
As for `CC1NC(=O)C(NC(=O)c2cnc3ccccc3n2)COC(=O)C(C(C)C)N(C)C(=O)C2CSSCC(C(=O)N(C)C(C(C)C)C(=O)OCC(NC(=O)c3cnc4ccccc4n3)C(=O)NC(C)C(=O)N2C)N(C)C1=O` (stereo not drawn) (I: Quinoxaline2carbonyl-SA[NMeC][NMeV] / II: Quinoxaline2carbonyl-SA[NMeC][NMeV]; ester I:1-II:C, I:C-II:1; disulfide I:3-II:3; configuration not given here), the T/C (dose: 25.0 micrograms/kg/injection, schedule: Q07DX002 (ip), vehicle: Klucel (hydroxypropylcellulose) (HPC)) is 102 % of control; the T/C (dose: 50.0 micrograms/kg/injection, schedule: Q07DX002 (ip), vehicle: Klucel (hydroxypropylcellulose) (HPC)) was 74 % of control; the T/C (dose: 100.0 micrograms/kg/injection, schedule: Q07DX002 (ip), vehicle: Klucel (hydroxypropylcellulose) (HPC)) was 84 % of control; the T/C (dose: 200.0 micrograms/kg/injection, schedule: Q07DX002 (ip), vehicle: Klucel (hydroxypropylcellulose) (HPC)) is 95 % of control.
In the case of `NS(=O)(=O)OCCCCCCCOS(N)(=O)=O`, the T/C was 124 % of control under setting [8]; 9 % of control and 16 % of control (dose: 200.0 mg/kg/injection, schedule: Q07DX002 (ip), vehicle: saline with Tween-80).
For the compound `C[n+]1c(-c2cccc3ccccc23)c2cc(N)ccc2c2ccccc21`, the T/C reads like this: (dose: 3.12 mg/kg/injection, schedule: Q07DX002 (ip), vehicle: saline) 107 % of control; (dose: 3.12 mg/kg/injection, schedule: Q07DX002 (ip), vehicle: suspension in saline) 160 % of control; under setting [9], 122 % of control; (dose: 6.25 mg/kg/injection, schedule: Q07DX002 (ip), vehicle: suspension in saline) 110 % of control; under setting [12], 64 % of control and 85 % of control; (dose: 12.5 mg/kg/injection, schedule: Q07DX002 (ip), vehicle: suspension in saline) 256 % of control. In addition, the T/C by setting is: under setting [1], 67 % of control and 79 % of control; under setting [13], 193 % of control.
For `CC1CN=C(c2ccc(NC(=O)c3ccc(C(=O)Nc4ccc(C5=NCC(C)N5)cc4)cc3)cc2)N1` (stereo not drawn), the T/C by setting is: under setting [10], 78 % of control and 79 % of control; (dose: 25.0 mg/kg/injection, schedule: Q07DX003 (ip), vehicle: Klucel (hydroxypropylcellulose) (HPC)) 115 % of control and 102 % of control; under setting [11], 86 % of control; (dose: 400.0 mg/kg/injection, schedule: Q07DX003 (ip), vehicle: Klucel (hydroxypropylcellulose) (HPC)) 63 % of control.
As for `O=C1OC(=O)[C@H]2[C@@H]1[C@H]1C=C[C@@H]2OC1=O`, the T/C was 59 % of control under setting [13]; 65 % of control (dose: 50.0 mg/kg/injection, schedule: Q07DX002 (ip), vehicle: suspension in saline); 44 % of control (dose: 100.0 mg/kg/injection, schedule: Q07DX002 (ip), vehicle: suspension in saline); 62 % of control (dose: 200.0 mg/kg/injection, schedule: Q07DX002 (ip), vehicle: suspension in saline); 71 % of control (dose: 400.0 mg/kg/injection, schedule: Q07DX002 (ip), vehicle: suspension in saline); 97 % of control (dose: 800.0 mg/kg/injection, schedule: Q07DX002 (ip), vehicle: suspension in saline).
Take `Nc1cc2[nH]cnc2c(=O)[nH]1`: the T/C reads like this: under setting [12], 66 % of control; under setting [1], 168 % of control; under setting [3], 113 % of control; under setting [4], 99 % of control; under setting [5], 117 % of control.
On to `Cc1cn(C2CC3[O][Sn]([c]4ccccc4)([c]4ccccc4)[O]CC3O2)c(=O)[nH]c1=O` (stereo not drawn), for which the T/C is, setting by setting: under setting [12], 110 % of control; under setting [1], 100 % of control; under setting [2], 95 % of control; under setting [3], 110 % of control; under setting [4], 99 % of control.
As to `CCCCCCCCCCS(=O)CC(CO)NC(=O)/C=C/c1c(C)[nH]c(=O)[nH]c1=O` (stereo not drawn), the T/C reads like this: (dose: 1.5 mg/kg/injection, schedule: Q07DX002 (ip), vehicle: distilled water + Tween-80) 76 % of control and 96 % of control; (dose: 3.0 mg/kg/injection, schedule: Q07DX002 (ip), vehicle: distilled water + Tween-80) 109 % of control and 96 % of control; (dose: 12.0 mg/kg/injection, schedule: Q07DX002 (ip), vehicle: distilled water + Tween-80) 112 % of control and 115 % of control; (dose: 48.0 mg/kg/injection, schedule: Q07DX002 (ip), vehicle: distilled water + Tween-80) 80 % of control.

For the origin of these results see PubChem BioAssay AID212 (DTP/NCI, 2004).
